Assay results from patent US8999974B2, “Acyl piperazine derivatives as TTX-S blockers” (Raqualia Pharma Inc., priority 2010, dated 2015).

Molecular target: T1, human NaV1.3 (Homo sapiens, UniProt Q9NY46)
T1 construct: expressed in transfected cells; host or cells: HEK293
Test: FRET assay (EFS, FDSS) on HEK293 cells expressing human NaV1.3 channels
Type: cell-based
Conditions: FRET assay, HEK293 cells expressing human NaV1.3; read-out: IC50 against Nav1.3
Method: (§1) This screen was used to determine the effects of compounds on human NaV1.3, human Nav1.7, and human Nav1.5 channels, utilising electrical field stimulation (EFS) system in 96-well plate format on FDSS (Hamamatsu Photonics) platform. The change of membrane potential was monitored with FRET dye pair, oxonol (DiSBAC2(3)) and coumarin (CC2-DMPE).
Each HEK293 cells expressing human NaV1.3 channels and HEK293 cells expressing human NaV1.5 channels were grown in T225 flasks, in a 5% CO2 humidified incubator to about 80% confluence. Media composition consisted of Dulbecco's Modified Eagle Medium (high glucose), 10% FCS, 100 units/ml Penicillin, 100 microgram/ml Streptomycin and 500 microgram/ml Geneticine.
(§2) Protocol: • Seeded each cell lines (1×10^5 cells/well) into poly-D-lysine coated 96-well plates prior to experimentation. • Incubated at 37° C. in 5% CO2 for 24 hours. • Washed each well with assay buffer (140 mM NaCl, 4.5 mM KCl, 10 mM D-Glucose, 2 mM CaCl2, 1 mM MgCl2, 10 mM HEPES, pH 7.4 adjusted with NaOH) twice. • Added 1st loading solution containing 10 microM CC2-DMPE and 0.06% Pluronic F-127 in assay buffer. • Incubated the plate at room temperature in dark for 1 hour. • Removed 1st loading solution and added 2nd loading solution containing 15 microM DiSBAC2(3), 0.555 mM VABSC-1 and 0.004% Pluronic F-127 in assay buffer. • Placed the plate under the dark at room temperature for 25 minutes. • Added compound solutions into the assay plate. • Set the assay plate in FDSS and placed an EFS device on the plate. • Measured EFS-induced fluorescent response by FDSS.
(§3) The data were analyzed and reported as normalized ratios of intensities measured at […]. The process of calculating these ratios was performed as follows:
(§4) [formula] This analysis was performed using a computerized specific program designed for FDSS generated data. Fluorescence ratio values were plotted using XLfit to determine an IC50 value for each compound.

T1 sequence (Q9NY46 whole entry): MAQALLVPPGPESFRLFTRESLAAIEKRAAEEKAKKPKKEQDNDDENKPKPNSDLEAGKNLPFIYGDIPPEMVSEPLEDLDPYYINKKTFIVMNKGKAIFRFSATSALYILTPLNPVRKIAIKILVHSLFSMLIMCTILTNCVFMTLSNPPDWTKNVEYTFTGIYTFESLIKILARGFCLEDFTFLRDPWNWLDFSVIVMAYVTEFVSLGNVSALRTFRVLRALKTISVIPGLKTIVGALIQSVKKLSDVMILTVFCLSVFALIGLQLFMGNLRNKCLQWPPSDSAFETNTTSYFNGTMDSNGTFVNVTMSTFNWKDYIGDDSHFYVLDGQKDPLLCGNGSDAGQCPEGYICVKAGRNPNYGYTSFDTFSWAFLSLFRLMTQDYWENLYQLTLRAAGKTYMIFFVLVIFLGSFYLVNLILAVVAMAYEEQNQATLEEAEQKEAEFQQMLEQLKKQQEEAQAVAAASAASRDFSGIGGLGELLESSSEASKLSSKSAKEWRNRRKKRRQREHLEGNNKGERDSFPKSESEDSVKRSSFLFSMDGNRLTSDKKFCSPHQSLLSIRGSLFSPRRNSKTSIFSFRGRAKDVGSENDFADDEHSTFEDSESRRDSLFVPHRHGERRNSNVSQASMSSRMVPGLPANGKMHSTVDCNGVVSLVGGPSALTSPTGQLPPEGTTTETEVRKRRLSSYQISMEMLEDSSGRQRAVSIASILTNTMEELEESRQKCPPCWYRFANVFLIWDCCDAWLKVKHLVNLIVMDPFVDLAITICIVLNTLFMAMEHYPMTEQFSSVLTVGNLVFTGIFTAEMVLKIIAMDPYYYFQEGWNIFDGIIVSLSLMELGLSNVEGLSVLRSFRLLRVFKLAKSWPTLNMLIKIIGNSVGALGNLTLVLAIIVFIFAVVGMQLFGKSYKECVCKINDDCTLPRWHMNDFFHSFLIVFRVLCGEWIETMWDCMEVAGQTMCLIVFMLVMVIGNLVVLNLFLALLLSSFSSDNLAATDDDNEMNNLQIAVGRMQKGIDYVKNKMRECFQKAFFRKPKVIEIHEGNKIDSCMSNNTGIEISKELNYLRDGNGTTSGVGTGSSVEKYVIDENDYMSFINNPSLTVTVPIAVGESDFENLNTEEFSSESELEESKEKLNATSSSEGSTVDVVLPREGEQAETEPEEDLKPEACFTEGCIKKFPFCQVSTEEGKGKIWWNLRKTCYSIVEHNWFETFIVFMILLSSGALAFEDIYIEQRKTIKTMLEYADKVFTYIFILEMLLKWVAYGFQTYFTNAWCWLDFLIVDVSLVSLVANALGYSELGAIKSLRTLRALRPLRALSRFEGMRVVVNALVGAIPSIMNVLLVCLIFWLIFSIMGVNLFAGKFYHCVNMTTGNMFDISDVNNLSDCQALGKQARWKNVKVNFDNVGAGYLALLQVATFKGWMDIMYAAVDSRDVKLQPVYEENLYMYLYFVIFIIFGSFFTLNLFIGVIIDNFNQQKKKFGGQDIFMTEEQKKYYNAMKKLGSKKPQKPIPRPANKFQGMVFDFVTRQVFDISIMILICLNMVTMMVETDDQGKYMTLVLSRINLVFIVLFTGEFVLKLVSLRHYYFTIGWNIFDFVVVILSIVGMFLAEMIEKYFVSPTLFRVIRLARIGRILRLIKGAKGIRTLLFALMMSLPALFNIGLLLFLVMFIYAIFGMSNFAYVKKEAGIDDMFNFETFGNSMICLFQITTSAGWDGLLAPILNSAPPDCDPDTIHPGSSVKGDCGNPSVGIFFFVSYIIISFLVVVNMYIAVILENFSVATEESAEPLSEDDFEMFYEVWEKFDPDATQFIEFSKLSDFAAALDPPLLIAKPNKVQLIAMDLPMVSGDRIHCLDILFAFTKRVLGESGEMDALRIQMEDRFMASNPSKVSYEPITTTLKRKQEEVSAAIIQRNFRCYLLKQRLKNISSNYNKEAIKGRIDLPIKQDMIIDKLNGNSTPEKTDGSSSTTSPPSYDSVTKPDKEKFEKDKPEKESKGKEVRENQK

IC50, < 3 µM:
O=C(Cn1nc2ccccc2n1)N1CCN(c2cc(OC3CCC3)ncn2)CC1 [Example 220, 2-(2H-benzo[d][1,2,3]triazol-2-yl)-1-(4-(6-cyclobutoxypyrimidin-4-yl)piperazin-1-yl)ethanone]
CCn1nc(C(=O)N2CCN(c3cc(OCC(C)C)ncn3)CC2)cc1C(F)(F)F [Example 228, (1-ethyl-5-(trifluoromethyl)-1H-pyrazol-3-yl)(4-(6-isobutoxypyrimidin-4-yl)piperazin-1-yl)methanone]
CCOc1cccc(C(=O)N2CCN(c3cc(OCC(C)C)ncn3)CC2)n1 [Example 231, (6-ethoxypyridin-2-yl)(4-(6-isobutoxypyrimidn-4-yl)piperazin-1-yl)methanone]
CC(C)COc1cc(N2CCN(C(=O)c3cccc(OCC(F)(F)F)n3)CC2)ncn1 [Example 232, (4-(6-isobutoxypyrimidin-4-yl)piperazin-1-yl)(6-(2,2,2-trifluoroethoxy)pyridin-2-yl)methanone]
CC(C)COc1cc(N2CCN(C(=O)c3csc(C(C)C)n3)CC2)ncn1 [Example 233, (4-(6-isobutoxypyrimidin-4-yl)piperazin-1-yl)(2-isopropylthiazol-4-yl)methanone]
CCOc1cc(N2CCN(C(=O)c3csc(-c4ccccn4)n3)CC2)ncn1 [Example 241, (4-(6-ethoxypyrimidin-4-yl)piperazin-1-yl)(2-(pyridin-2-yl)thiazol-4-yl)methanone]

Molecular target: T2, human Nav1.7 (Homo sapiens, UniProt Q15858)
T2 construct: expressed in transfected cells; host or cells: CHO
T2 sequence (Q15858 whole entry): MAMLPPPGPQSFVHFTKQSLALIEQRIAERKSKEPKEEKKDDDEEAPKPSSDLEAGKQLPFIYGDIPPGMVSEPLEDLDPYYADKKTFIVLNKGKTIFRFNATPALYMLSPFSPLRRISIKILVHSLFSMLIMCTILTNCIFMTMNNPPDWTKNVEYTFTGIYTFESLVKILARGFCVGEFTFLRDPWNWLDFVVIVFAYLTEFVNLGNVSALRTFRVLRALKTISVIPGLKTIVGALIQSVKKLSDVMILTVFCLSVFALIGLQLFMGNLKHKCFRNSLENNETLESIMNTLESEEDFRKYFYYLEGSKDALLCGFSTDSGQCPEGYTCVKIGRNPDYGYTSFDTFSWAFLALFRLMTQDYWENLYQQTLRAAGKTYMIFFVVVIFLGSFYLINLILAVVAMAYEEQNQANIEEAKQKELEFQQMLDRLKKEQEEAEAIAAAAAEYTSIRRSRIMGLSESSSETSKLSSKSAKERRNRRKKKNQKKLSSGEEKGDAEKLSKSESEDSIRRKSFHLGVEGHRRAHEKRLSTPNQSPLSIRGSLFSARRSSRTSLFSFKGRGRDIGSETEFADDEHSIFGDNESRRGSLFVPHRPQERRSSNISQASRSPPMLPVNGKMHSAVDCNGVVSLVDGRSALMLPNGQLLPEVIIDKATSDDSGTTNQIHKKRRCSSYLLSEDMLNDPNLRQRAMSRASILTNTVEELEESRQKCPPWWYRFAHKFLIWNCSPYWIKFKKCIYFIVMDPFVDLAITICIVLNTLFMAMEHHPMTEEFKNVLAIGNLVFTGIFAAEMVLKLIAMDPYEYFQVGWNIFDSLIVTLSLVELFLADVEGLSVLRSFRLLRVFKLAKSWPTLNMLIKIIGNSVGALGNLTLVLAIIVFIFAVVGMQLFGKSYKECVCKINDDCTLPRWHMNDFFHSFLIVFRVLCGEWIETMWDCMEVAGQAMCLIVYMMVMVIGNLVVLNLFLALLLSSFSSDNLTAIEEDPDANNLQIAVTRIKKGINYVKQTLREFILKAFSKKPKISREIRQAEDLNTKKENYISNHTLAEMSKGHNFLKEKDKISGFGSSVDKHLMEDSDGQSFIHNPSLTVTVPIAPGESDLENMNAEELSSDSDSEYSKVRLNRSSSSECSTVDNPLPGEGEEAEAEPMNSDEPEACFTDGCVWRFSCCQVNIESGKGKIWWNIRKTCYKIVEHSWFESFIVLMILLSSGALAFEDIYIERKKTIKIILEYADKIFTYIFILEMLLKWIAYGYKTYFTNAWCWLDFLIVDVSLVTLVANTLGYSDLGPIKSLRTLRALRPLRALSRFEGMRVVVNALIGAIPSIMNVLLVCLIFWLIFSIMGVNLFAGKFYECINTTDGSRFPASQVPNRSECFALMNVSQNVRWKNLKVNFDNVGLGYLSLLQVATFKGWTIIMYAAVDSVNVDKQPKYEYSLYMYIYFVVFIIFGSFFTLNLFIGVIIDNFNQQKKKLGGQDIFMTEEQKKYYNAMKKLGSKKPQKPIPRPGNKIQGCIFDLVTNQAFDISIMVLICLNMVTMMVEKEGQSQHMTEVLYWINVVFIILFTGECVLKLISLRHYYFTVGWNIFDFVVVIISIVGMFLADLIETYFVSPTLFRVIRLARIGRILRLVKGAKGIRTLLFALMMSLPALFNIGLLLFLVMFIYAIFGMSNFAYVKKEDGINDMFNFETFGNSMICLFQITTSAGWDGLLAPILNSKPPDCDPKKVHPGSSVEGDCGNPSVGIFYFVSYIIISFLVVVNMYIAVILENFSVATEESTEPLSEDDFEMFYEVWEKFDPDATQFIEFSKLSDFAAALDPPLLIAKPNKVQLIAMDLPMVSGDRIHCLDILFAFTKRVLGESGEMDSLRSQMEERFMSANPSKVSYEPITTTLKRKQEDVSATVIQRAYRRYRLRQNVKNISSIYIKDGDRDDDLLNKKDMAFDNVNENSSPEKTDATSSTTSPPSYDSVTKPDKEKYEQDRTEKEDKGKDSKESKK
Test: FRET assay (EFS, FDSS) on CHO cells expressing human NaV1.7 channels
Type: cell-based
Conditions: FRET assay, CHO cells expressing human NaV1.7; read-out: IC50 against Nav1.7
Method: as §1
CHO cells expressing human NaV1.7 channels were grown in T225 flasks, in a 5% CO2 humidified incubator to about 80% confluence. Media composition consisted of HAM/F12 with Glutamax I, 10% FCS, 100 units/ml Penicillin and 100 microgram/ml Hygromycin.
as §2, §3, §4

IC50, < 3 µM:
Cc1ccc(C(=O)N2CCN(c3cc(OCC(F)(F)F)ncn3)CC2)cc1F [Example 8, 3-(fluoro-4-methylphenyl)(4-(6-(2,2,2-trifluoroethoxy)pyrimidin-4-yl)piperazin-1-yl)methanone]
CC(C)COc1cc(N2CCN(C(=O)[C@@H](NC(=O)OC(C)(C)C)c3ccccc3)CC2)ncn1 [Example 10, (S)-tert-butyl (2-(4-(6-isobutoxypyrimidin-4-yl)piperazin-1-yl)-2-oxo-1-phenylethyl)carbamate]
CC(C)COc1cc(N2CCN(C(=O)[C@@H](N)c3ccccc3)CC2)ncn1 [Example 27, (S)-2-amino-1-(4-(6-isobutoxypyrimidin-4-yl)piperazin-1-yl)-2-phenylethanone]
CC(C)COc1cc(N2CCN(C(=O)c3ccc4cccc(O)c4n3)CC2)ncn1 [Example 32, (8-hydroxyquinolin-2-yl)(4-(6-isobutoxypyrimidin-4-yl)piperazin-1-yl)methanone]
CC(C)COc1cc(N2CCN(C(=O)c3ccc(Cl)c(F)c3)CC2)ncn1 [Example 39, (4-chloro-3-fluorophenyl)(4-(6-isobutoxypyrimidin-4-yl)piperazin-1-yl)methanone]
CC(C)COc1cc(N2CCN(C(=O)c3ccc(C(F)(F)F)cc3O)CC2)ncn1 [Example 42, (2-hydroxy-4-(trifluoromethyl)phenyl)(4-(6-isobutoxypyrimidin-4-yl)piperazin-1-yl)methanone]
CC(C)COc1cc(N2CCN(C(=O)c3cc4ccccc4n3C)CC2)ncn1 [Example 43, (4-(6-isobutoxypyrimidin-4-yl)piperazin-1-yl)(1-methyl-1H-indol-2-yl)methanone]
CC(C)COc1cc(N2CCN(C(=O)Cc3c[nH]c4ccc(F)cc34)CC2)ncn1 [Example 60, 2-(5-fluoro-1H-indol-3-yl)-1-(4-(6-isobutoxypyrimidin-4-yl)piperazin-1-yl)ethanone]
O=C(c1ccc2cccc(O)c2n1)N1CCN(c2cc(OCC(F)(F)F)ncn2)CC1 [Example 65, (8-hydroxyquinolin-2-yl)(4-(6-(2,2,2-trifluoroethoxy)pyrimidin-4-yl)piperazin-1-yl)methanone]
CC(C)COc1cc(N2CCN(C(=O)CNC(=O)c3cccc4[nH]ccc34)CC2)ncn1 [Example 75, N-(2-(4-(6-isobutoxypyrimidin-4-yl)piperazin-1-yl)-2-oxoethyl)-1H-indole-4-carboxamide]
